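Interpolation was linear, between the two tested concentrations surrounding the appropriate level; five concentrations were tested over 48 hours in 96-well plates. Here, GI50 denotes the concentration required for 50% inhibition of growth.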 The source made the active and inactive calls. No stated cut-off is given here; in the data, active = GI50 up to about 1.1 µM and inactive = higher.
What was measured:
Test in all cases: NCI tumour cell line growth inhibition, 48 h
LOX IMVI = system: LOX IMVI
MDA-N = system: MDA-N
NCI-H522 = system: NCI-H522
SW-620 = system: SW-620
TK-10 = system: TK-10
MDA-MB-435 = system: MDA-MB-435
HOP-62 = system: HOP-62
DU-145 = system: DU-145
NCI/ADR-RES = system: NCI/ADR-RES
OVCAR-8 = system: OVCAR-8
PC-3 = system: PC-3
HL-60 = system: HL-60
UACC-257 = system: UACC-257
T47D = system: T47D
IGROV-1 = system: IGROV-1
MCF7 = system: MCF7
U-251 = system: U-251
SNB-19 = system: SNB-19
A498 = system: A498
NCI-H226 = system: NCI-H226

Measured: GI50

NC(=O)c1cc2ccc(O)cc2o/c1=N/c1ccccc1
inactive: LOX IMVI 24 µM | MDA-N 22.5 µM | NCI-H522 17.8 µM | SW-620 26.2 µM | TK-10 27.1 µM | MDA-MB-435 23.3 µM | HOP-62 40.7 µM | DU-145 43.2 µM | NCI/ADR-RES 23.8 µM | OVCAR-8 30.3 µM | PC-3 37.7 µM | HL-60 25.1 µM | UACC-257 39.3 µM | T47D 16 µM | IGROV-1 26.5 µM | MCF7 31.2 µM | U-251 34.7 µM | SNB-19 36 µM | A498 16.3 µM | NCI-H226 17.1 µM

COc1cc(C(=O)Oc2ccc3c(c2)OCO3)cc(OC)c1OC
inactive: LOX IMVI > 100 µM | MDA-N > 100 µM | NCI-H522 > 100 µM | SW-620 > 100 µM | TK-10 > 100 µM | MDA-MB-435 > 100 µM | HOP-62 > 100 µM | DU-145 > 100 µM | NCI/ADR-RES > 100 µM | OVCAR-8 > 100 µM | PC-3 > 100 µM | HL-60 > 100 µM | UACC-257 > 100 µM | T47D > 100 µM | IGROV-1 > 100 µM | MCF7 > 100 µM | U-251 > 100 µM | SNB-19 > 100 µM | A498 > 100 µM | NCI-H226 > 100 µM

N#Cc1nc(COCCOCc2ccccc2)oc1N
inactive: LOX IMVI > 100 µM | MDA-N > 100 µM | NCI-H522 23 µM | SW-620 > 100 µM | TK-10 > 100 µM | MDA-MB-435 > 100 µM | HOP-62 > 100 µM | DU-145 > 100 µM | NCI/ADR-RES > 100 µM | OVCAR-8 > 100 µM | PC-3 > 100 µM | HL-60 > 100 µM | UACC-257 > 100 µM | T47D > 100 µM | IGROV-1 > 100 µM | MCF7 > 100 µM | U-251 > 100 µM | SNB-19 > 100 µM | A498 > 100 µM | NCI-H226 > 100 µM

O=C(O)c1c[nH]c2c(Sc3ccccc3)nccc2c1=O
inactive: LOX IMVI 44.2 µM | MDA-N > 100 µM | NCI-H522 76.7 µM | SW-620 > 100 µM | TK-10 > 100 µM | MDA-MB-435 > 100 µM | HOP-62 > 100 µM | DU-145 > 100 µM | NCI/ADR-RES > 100 µM | OVCAR-8 > 100 µM | PC-3 > 100 µM | HL-60 78.7 µM | UACC-257 > 100 µM | T47D > 100 µM | IGROV-1 > 100 µM | MCF7 > 100 µM | U-251 > 100 µM | SNB-19 > 100 µM | A498 > 100 µM | NCI-H226 > 100 µM

CC(C)SC(=S)Sc1c(Cl)c(Cl)nc(Cl)c1Cl
inactive: LOX IMVI 2.39 µM | MDA-N 5.27 µM | NCI-H522 4.9 µM | SW-620 2.88 µM | TK-10 5.97 µM | MDA-MB-435 7.38 µM | HOP-62 5.85 µM | DU-145 3.94 µM | NCI/ADR-RES 20.3 µM | OVCAR-8 3.46 µM | PC-3 4.93 µM | HL-60 2.44 µM | UACC-257 3.52 µM | T47D 1.96 µM | IGROV-1 7.33 µM | MCF7 4.06 µM | U-251 3.98 µM | SNB-19 7.55 µM | A498 17.1 µM | NCI-H226 24.9 µM

CC(C)(C)OC(=O)[C@@H]1CCC(=O)N1C1(c2ccccc2)c2ccccc2-c2ccccc21
inactive: LOX IMVI 17.9 µM | MDA-N 29.4 µM | NCI-H522 26.9 µM | SW-620 30.5 µM | TK-10 > 100 µM | MDA-MB-435 30.1 µM | HOP-62 58.5 µM | DU-145 97.1 µM | NCI/ADR-RES > 100 µM | OVCAR-8 88.1 µM | PC-3 29.4 µM | HL-60 37.2 µM | UACC-257 77.1 µM | T47D 44.9 µM | IGROV-1 56.4 µM | MCF7 67.6 µM | U-251 25.7 µM | SNB-19 > 100 µM | A498 64.7 µM | NCI-H226 > 100 µM

c1ccc2c(c1)CN1CCCC1CN2 (stereo not given)
inactive: LOX IMVI > 100 µM | MDA-N > 100 µM | NCI-H522 > 100 µM | SW-620 > 100 µM | TK-10 > 100 µM | MDA-MB-435 > 100 µM | HOP-62 > 100 µM | DU-145 > 100 µM | NCI/ADR-RES > 100 µM | OVCAR-8 > 100 µM | PC-3 > 100 µM | HL-60 > 100 µM | UACC-257 > 100 µM | T47D > 100 µM | IGROV-1 > 100 µM | MCF7 > 100 µM | U-251 > 100 µM | SNB-19 > 100 µM | A498 > 100 µM | NCI-H226 > 100 µM

O=C1CSC(c2ccccc2O)N1c1ccc(-c2ccc(-n3c(-c4ccccc4)nc4ccccc4c3=O)cc2)cc1 (stereo not given)
inactive: LOX IMVI 25.7 µM | MDA-N 35.5 µM | NCI-H522 19.2 µM | SW-620 22.8 µM | TK-10 16.1 µM | MDA-MB-435 33.5 µM | HOP-62 39.6 µM | DU-145 49 µM | NCI/ADR-RES 30.1 µM | OVCAR-8 24.3 µM | PC-3 27.7 µM | HL-60 23.4 µM | UACC-257 50.1 µM | T47D 23 µM | IGROV-1 15.3 µM | MCF7 28.1 µM | U-251 33.7 µM | SNB-19 50.6 µM | A498 70 µM | NCI-H226 37.6 µM

O=C(C1OC1c1ccc(Cl)cc1)C12CC3CC(CC(C3)C1)C2 (stereo not given)
inactive: LOX IMVI 4.02 µM | MDA-N 15.2 µM | NCI-H522 20.9 µM | SW-620 20.3 µM | TK-10 26.7 µM | MDA-MB-435 14.3 µM | HOP-62 24.8 µM | DU-145 29.1 µM | NCI/ADR-RES 22.9 µM | OVCAR-8 16.5 µM | PC-3 29 µM | HL-60 18.3 µM | UACC-257 21.6 µM | T47D 31.6 µM | IGROV-1 23.6 µM | MCF7 33.7 µM | U-251 15.4 µM | SNB-19 31.5 µM | A498 23.7 µM | NCI-H226 18.3 µM

C=C(Br)CNC(=O)CCC(=O)NCC(=C)Br
inactive: LOX IMVI > 100 µM | MDA-N > 100 µM | NCI-H522 > 100 µM | SW-620 > 100 µM | TK-10 > 100 µM | MDA-MB-435 > 100 µM | HOP-62 > 100 µM | DU-145 > 100 µM | NCI/ADR-RES > 100 µM | OVCAR-8 > 100 µM | PC-3 > 100 µM | HL-60 > 100 µM | UACC-257 > 100 µM | T47D > 100 µM | IGROV-1 > 100 µM | MCF7 > 100 µM | U-251 > 100 µM | SNB-19 > 100 µM | A498 > 100 µM | NCI-H226 > 100 µM

Source: ChEMBL document CHEMBL1201862, “PubChem BioAssay data set” (2004)
